The test system of series [1] is Human immunodeficiency virus 1. Description: Antiviral activity against HIV1 3B infected in human MT4 cells assessed as protection against virus-induced cytopathic effect incubated for 5 days by MTT assay. The series is classed as functional, organism-based. The following applies: Human immunodeficiency virus 1, 3B, MT4, 120 h.
Series [2] relates to Human immunodeficiency virus 1. Description: Antiviral activity against HIV1 expressing RT Y181C mutant infected in human MT4 cells assessed as protection against virus-induced cytopathic effect incubated for 5 days by MTT assay. Format: functional, organism-based. The following applies: Human immunodeficiency virus 1, MT4, 120 h. In general terms: Damage to the host cells serves as the signal in cytopathic effect assays.

Series [3] in a line: Toxicity in Kunming mouse assessed as induction of mortality at 2000 mg/kg, ig measured 2 hrs post dose and then measured every 48 hrs for 14 days. The series is classed as organism-based. To be noted: in vivo, po.
Series [4] deals with Human immunodeficiency virus 1. Description: Antiviral activity against HIV1 expressing RT K103N mutant infected in human MT4 cells assessed as protection against virus-induced cytopathic effect incubated for 5 days by MTT assay. The series is classed as functional, organism-based. The following applies: Human immunodeficiency virus 1, MT4, 120 h.
The target of series [5] is Human immunodeficiency virus type 1 reverse transcriptase (Human immunodeficiency virus 1, UniProt Q72547, K103N/Y181C). Description: Inhibition of HIV1 RT K103N/Y181C mutant in presence of reconstituted template and viral nucleotides [digoxigenin (DIG)-dUTP, biotin-dUTP and dTTP] incubated for 1 hr by ELISA method. A general note: In an ELISA, binding on a coated surface is turned into a signal by an enzyme label.

For series [6], the target named is Human immunodeficiency virus type 1 reverse transcriptase (Human immunodeficiency virus 1, UniProt Q72547, Y188L). Description: Inhibition of HIV1 RT Y188L mutant in presence of reconstituted template and viral nucleotides [digoxigenin (DIG)-dUTP, biotin-dUTP and dTTP] incubated for 1 hr by ELISA method.
Series [7] is described as follows: Toxicity in Kunming mouse assessed as induction of body weight changes at 2000 mg/kg, ig measured 2 hrs post dose and then measured every 48 hrs for 14 days. Format: organism-based. The following applies: in vivo, po.
Series [8] deals with Human immunodeficiency virus 1. Description: Antiviral activity against HIV1 RES056 infected in human MT4 cells assessed as protection against virus-induced cytopathic effect incubated for 5 days by MTT assay. To be noted: Human immunodeficiency virus 1, RES056, MT4, 120 h. The series is classed as functional, organism-based.
For series [9], the target named is Human immunodeficiency virus type 1 reverse transcriptase (Human immunodeficiency virus 1, UniProt Q72547, K103N). Description: Inhibition of HIV1 RT K103N mutant in presence of reconstituted template and viral nucleotides [digoxigenin (DIG)-dUTP, biotin-dUTP and dTTP] incubated for 1 hr by ELISA method.
Series [10] relates to Human immunodeficiency virus 1. The series is classed as functional, organism-based. The following applies: Human immunodeficiency virus 1, MT4, 120 h.
Series [11] deals with Human immunodeficiency virus 1. Description: Antiviral activity against HIV1 expressing RT L100I mutant infected in human MT4 cells assessed as protection against virus-induced cytopathic effect incubated for 5 days by MTT assay. Format: functional, organism-based. To be noted: Human immunodeficiency virus 1, MT4, 120 h.
Series [12] relates to Human immunodeficiency virus 1. Description: Antiviral activity against HIV1 expressing RT E138K mutant infected in human MT4 cells assessed as protection against virus-induced cytopathic effect incubated for 5 days by MTT assay. The series is classed as functional, organism-based. To be noted: Human immunodeficiency virus 1, MT4, 120 h.
Series [13] deals with Human immunodeficiency virus 1. Description: Antiviral activity against HIV1 3B infected in human MT4 cells grown under 30 passages in presence of 4-[[4-[[4-[4-[2-cyanovinyl]-2,6-dimethylphenoxy]thieno[3,2-d]pyrimidin-2-yl]amino]-1-piperidyl]methyl]benzenesulfonamide assessed as protection against virus-induced cytopathic effect incubated for 5 days by MTT assay. To be noted: Human immunodeficiency virus 1, 3B, MT4, 120 h. Format: functional, organism-based.

Series [14] has as its system Human immunodeficiency virus 1. Description: Antiviral activity against HIV1 3B infected in human MT4 cells grown under 30 passages in presence of (E)-4-((4-((4-(4-(2-Cyanovinyl)-2,6-dimethylphenoxy)thieno[2,3- d]pyrimidin-2-yl)amino)piperidin-1-yl)methyl)benzenesulfonamide assessed as protection against virus-induced cytopathic effect incubated for 5 days by MTT assay. Format: functional, organism-based. To be noted: Human immunodeficiency virus 1, 3B, MT4, 120 h.

Series [15] has as its system Human immunodeficiency virus 1. Description: Antiviral activity against HIV1 3B infected in human MT4 cells grown under 30 passages in absence of test compound assessed as protection against virus-induced cytopathic effect incubated for 5 days by MTT assay. Format: functional, organism-based. To be noted: Human immunodeficiency virus 1, 3B, MT4, 120 h.
Series [16] in a line: Toxicity in Kunming mouse assessed as induction of abnormal behaviors at 2000 mg/kg, ig measured 2 hrs post dose and then measured every 48 hrs for 14 days. The series is classed as organism-based. The following applies: in vivo, po.
Series [17] in a line: Toxicity in Kunming mouse assessed as induction of toxic symptoms at 2000 mg/kg, ig measured 2 hrs post dose and then measured every 48 hrs for 14 days. The series is classed as organism-based. To be noted: in vivo, po.
Series [18] has as its target Human immunodeficiency virus type 1 reverse transcriptase (Human immunodeficiency virus 1, UniProt Q72547, Y181C). Description: Inhibition of HIV1 RT Y181C mutant in presence of reconstituted template and viral nucleotides [digoxigenin (DIG)-dUTP, biotin-dUTP and dTTP] incubated for 1 hr by ELISA method.
The test system of series [19] is Human immunodeficiency virus 1. Description: Antiviral activity against HIV1 expressing RT Y188L mutant infected in human MT4 cells assessed as protection against virus-induced cytopathic effect incubated for 5 days by MTT assay. To be noted: Human immunodeficiency virus 1, MT4, 120 h. Format: functional, organism-based.
Series [20] addresses Human immunodeficiency virus type 1 reverse transcriptase (Human immunodeficiency virus 1, UniProt Q72547, E138K). Description: Inhibition of HIV1 RT E138K mutant in presence of reconstituted template and viral nucleotides [digoxigenin (DIG)-dUTP, biotin-dUTP and dTTP] incubated for 1 hr by ELISA method.
Series [21] has as its target Human immunodeficiency virus type 1 reverse transcriptase (Human immunodeficiency virus 1, UniProt Q72547). Description: Inhibition of HIV1 RT in presence of reconstituted template and viral nucleotides [digoxigenin (DIG)-dUTP, biotin-dUTP and dTTP] incubated for 1 hr by ELISA method.
Series [22] deals with Human immunodeficiency virus 1. Description: Antiviral activity against HIV1 3B infected in human MT4 cells grown under 30 passages in presence of 4-[[4-[[4-(4-cyano-2,6-dimethylphenoxy)thieno[3,2-d]pyrimidin-2-yl]amino]-1-piperidyl]methyl]benzenesulfonamide assessed as protection against virus-induced cytopathic effect incubated for 5 days by MTT assay. Format: functional, organism-based. To be noted: Human immunodeficiency virus 1, 3B, MT4, 120 h.

For the molecule `Cc1cc(/C=C/C#N)cc(C)c1Oc1nc(NC2CCN(Cc3ccc(S(N)(=O)=O)cc3)CC2)nc2sccc12`, the EC50 in series [1] turned out to be 3.24 nM; in series [2] it was 6.57 nM; in series [4] it was 2.34 nM; in series [8] it was 6.45 nM; in series [10] it was 4.81 nM; in series [11], 2.05 nM. For the same molecule, the EC50 came to 6.7 nM in series [12]; 870 nM in series [13]; 3600 nM in series [14]; 4.1 nM in series [15]; 7.59 nM in series [19]; 1780 nM in series [22]. Further, the Activity result in [3], in series [7], in [16] and in series [17] was “Non-Toxic” in each case. For the same molecule, the IC50 in [5] worked out at 120 nM; in series [6], 452 nM; in series [9], 222 nM; in series [18], 141 nM; in [20], 374 nM; in [21], 114 nM.

As a reminder, the EC50 is the concentration at which the effect is half-maximal. In general, IC50 refers to the concentration at which inhibition is half-maximal.

The values above are taken from ChEMBL document CHEMBL4354878, “Structure-Based Bioisosterism Yields HIV-1 NNRTIs with Improved Drug-Resistance Profiles and Favorable Pharmacokinetic Properties” (J Med Chem, 2020).
